From ChEMBL document CHEMBL1131827, “Ring E analogs of methyllycaconitine (MLA) as novel nicotinic antagonists” (Bioorg Med Chem Lett, 1999) come the findings set out here.

This test deals with Chromaffin cell neuronal nicotinic acetylcholine receptor (Bos taurus) (UniProt Q8SPU6+Q07263+P54131). The experiment in a line: Antagonist activity was determined by inhibition of neuronal nicotine acetylcholine receptor (nAChR)-stimulated catecholamine release in cultured bovine adrenal chromaffin cells. The following applies: concentration not given here. On the set-up: concentration or dose not given beside the values. In kind it is functional.
Chromaffin cell neuronal nicotinic acetylcholine receptor (Bos taurus), sequence (P54131 whole entry, looked up): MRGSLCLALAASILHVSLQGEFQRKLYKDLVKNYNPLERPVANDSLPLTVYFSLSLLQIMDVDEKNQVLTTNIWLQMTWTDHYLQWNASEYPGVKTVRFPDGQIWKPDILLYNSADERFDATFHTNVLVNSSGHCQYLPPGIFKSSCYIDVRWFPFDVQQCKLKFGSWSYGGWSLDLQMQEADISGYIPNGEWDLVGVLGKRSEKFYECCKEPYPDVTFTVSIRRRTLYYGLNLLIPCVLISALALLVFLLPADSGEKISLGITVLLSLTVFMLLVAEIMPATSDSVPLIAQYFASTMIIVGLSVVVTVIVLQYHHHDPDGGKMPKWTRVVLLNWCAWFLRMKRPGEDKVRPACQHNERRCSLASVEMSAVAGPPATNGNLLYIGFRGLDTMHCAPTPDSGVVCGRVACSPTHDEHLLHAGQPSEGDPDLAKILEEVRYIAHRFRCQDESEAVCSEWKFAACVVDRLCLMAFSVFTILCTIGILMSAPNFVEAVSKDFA
Chromaffin cell neuronal nicotinic acetylcholine receptor (Bos taurus), sequence (Q07263 whole entry, looked up): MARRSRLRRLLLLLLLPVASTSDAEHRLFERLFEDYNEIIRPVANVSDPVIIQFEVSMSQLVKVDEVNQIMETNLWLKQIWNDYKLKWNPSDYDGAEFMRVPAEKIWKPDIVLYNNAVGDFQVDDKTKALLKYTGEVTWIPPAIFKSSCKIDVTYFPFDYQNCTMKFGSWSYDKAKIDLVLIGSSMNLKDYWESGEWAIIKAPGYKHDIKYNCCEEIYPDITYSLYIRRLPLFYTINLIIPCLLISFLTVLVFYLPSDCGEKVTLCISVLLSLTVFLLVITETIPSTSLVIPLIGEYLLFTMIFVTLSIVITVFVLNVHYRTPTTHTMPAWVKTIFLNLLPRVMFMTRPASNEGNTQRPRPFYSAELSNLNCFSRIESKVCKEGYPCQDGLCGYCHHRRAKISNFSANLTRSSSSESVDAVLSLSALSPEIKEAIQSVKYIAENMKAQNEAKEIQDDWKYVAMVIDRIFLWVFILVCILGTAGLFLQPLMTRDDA
Chromaffin cell neuronal nicotinic acetylcholine receptor (Bos taurus), sequence (Q8SPU6 whole entry, looked up): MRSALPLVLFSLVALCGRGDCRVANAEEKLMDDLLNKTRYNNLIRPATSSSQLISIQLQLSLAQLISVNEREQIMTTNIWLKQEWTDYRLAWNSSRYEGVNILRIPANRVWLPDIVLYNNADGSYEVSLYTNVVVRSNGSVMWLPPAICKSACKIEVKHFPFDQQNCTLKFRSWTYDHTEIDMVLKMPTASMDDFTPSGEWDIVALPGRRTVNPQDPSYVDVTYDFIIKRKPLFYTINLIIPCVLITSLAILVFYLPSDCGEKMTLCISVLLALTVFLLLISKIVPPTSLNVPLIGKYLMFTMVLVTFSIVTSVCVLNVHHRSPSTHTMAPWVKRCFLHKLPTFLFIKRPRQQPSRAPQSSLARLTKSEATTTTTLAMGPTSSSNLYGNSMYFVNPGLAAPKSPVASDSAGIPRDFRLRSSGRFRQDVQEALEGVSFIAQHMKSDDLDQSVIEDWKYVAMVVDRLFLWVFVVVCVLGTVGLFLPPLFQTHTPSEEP
As to `CC1CC(=O)N(c2ccccc2C(=O)OCC2CCCN(C(C)C)C2)C1=O` (centres undefined), the inhibition (in general, the drop in the measured response relative to a control, in per cent) turned out to be 56.5%.
The compound `CC1CC(=O)N(c2ccccc2C(=O)OCC2CCCN(C)C2)C1=O` (centres undefined) displayed an inhibition of 30.1%.
In turn, `CCN1C[C@]2(COC(=O)c3ccccc3N3C(=O)C[C@H](C)C3=O)CC[C@H](OC)[C@@]34[C@@H]5C[C@H]6[C@H](OC)[C@@H]5[C@](O)(C[C@@H]6OC)[C@](O)([C@@H](OC)[C@H]23)[C@@H]14` gave an inhibition of 95.2%.
Compound `CC1CC(=O)N(c2ccccc2C(=O)OCC2CCCN(CCCc3ccccc3)C2)C1=O` (centres undefined) showed an inhibition of 86.3%.
As for `CCN1CCCC(COC(=O)c2ccccc2N2C(=O)CC(C)C2=O)C1` (centres undefined), the inhibition came out at 33.5%.
As for `CCCCN1CCCC(COC(=O)c2ccccc2N2C(=O)CCC2=O)C1` (centres undefined), the inhibition stood at 38.4%.
The compound `CC(C)N1CCCC(COC(=O)c2ccccc2N2C(=O)CCC2=O)C1` (centres undefined) came in with an inhibition of 36.4%.
In the case of `CC1CC(=O)N(c2ccccc2C(=O)OCC2CCCN(CCc3ccccc3)C2)C1=O` (centres undefined) it was 37%; in that of `CCOCCN1CCCC(COC(=O)c2ccccc2N2C(=O)CC(C)C2=O)C1` (centres undefined), 45.9%.
